Measured values as given in patent publication US12306176B2, “Microfluidic bi-directional migration assay” (Ohio State Innovation Foundation, priority 2017, dated 2025).

How the values were obtained:
MDA-MB-231 cells = assay: Modified transwell migration assay; type: cell-based, human; conditions: EGF 100 ng/mL in bottom chamber, 8 hours
From the text: In addition to the MBDM assay, the modified transwell migration assay (Ahirwar D K, et al. (2015) Sci Rep 5:11005.) was used to determine the effects of standalone iEF treatment on number of cells migrated to complement the speed and persistence data obtained from the MBDM assay. iEF treatment alone had no significant effect (neither stimulatory nor inhibitory) on the total number of MDA-MB-231 cells that spontaneously migrated across the transwell membrane (˜10 μm thick) compared to the untreated control (FIG. 8). These outcomes occurred for both anti-parallel and parallel directions of iEF application.
Transwell permeable supports that have 6.5 mm diameter inserts of polycarbonate membrane with 8 μm diameter pore size (Corning, CLS3422) were used in the experiments reported here. […] Cell migration numbers were then quantified using a custom MATLAB script as described in Image Acquisition and Processing. […]
Images from experiments with the transwell migration assays were taken using a stereo microscope (Leica Microsystems Inc.) after fixation and staining of the cells using the HEMA 3 solution kit (Fisher Scientific). […] The images were then imported into MATLAB and analyzed using a custom code (MATLAB script). […] The average area of a cell was determined from the mean of manual measurements of approximately 20 isolated cells for each case. […]

[1] = system: lactate dehydrogenase (LDH); assay: LDH activity colorimetric kinetic assay; type: cell-based, human; conditions: EGF 25 ng/mL, 12 hours; not significant
From the text: To investigate whether iEF has an effect on metabolic function of MDA-MB-231 cells, the activity levels of lactate dehydrogenase (LDH) and succinate dehydrogenase (SDH) were examined. LDH is an enzyme that catalyzes the interconversion of pyruvate to lactate as part of the glycolysis chain (Pelicano H, et al. (2006) Oncogene 25 (34):4633). SDH is an enzyme within Complex II of the mitochondria that is utilized in both the tricarboxylic acid (TCA) cycle as well as oxidative phosphorylation (OXPHOS) (Gottlieb E & Tomlinson IP (2005) Nat Rev Cancer. 5 (11):857). As part of the TCA cycle, SDH catalyzes the oxidation of succinate to fumarate, and as part of OXPHOS, SDH transfers two electrons from flavin adenine dinucleotide into the electron transport chain (Gottlieb E & Tomlinson IP (2005) Nat Rev Cancer. 5 (11):857). To determine whether LDH or SDH activity levels were changing, colorimetric kinetic assays were employed. […]
1×10^6 cells/well were plated in 6 well plates in growth media for 12 hours followed by migration media (0.1% FBS) for an additional 12 hours. […] The LDH activity assay kit (Sigma-Aldrich, MAK066) and the SDH activity colorimetric assay kit (Sigma-Aldrich, MAK197) were used to quantify LDH and SDH activity respectively. […] For quantification of LDH and SDH, the protocols provided by the supplier were followed. […]

Substance: epidermal growth factor [EGF]
- transmigration compared to untreated controls (MDA-MB-231 cells): significantly promoted
- change of LDH activity from control [1]: < 6%
